What was measured:
[1] = system: NF-kβ; type: cell-based, rat; conditions: LPS 1.0 μg/ml, 1 h
Procedure: Preparation of Nuclear Extracts and Electrophoretic Mobility shift assay Nuclear extracts from stimulated or unstimulated astrocytes (1×10^7 cells) were prepared using the method of Dignam et al. (1983) with slight modification. Cells were harvested, washed twice with ice-cold phosphate-buffered saline and lysed in 400 μl of buffer A (10 mM HEPES, pH 7.9, 10 mM KCl, 2 mM MgCl2, 0.5 mM DTT, 1 mM PMSF, 5 μg/ml aprotinin, 5 μg/ml pepstatin A, and 5 μg/ml leupeptin (Sigma, St. Louis, Mo.) containing 0.1% Nondet P-40 for 15 min on ice, vortexed vigorously for 15 s, and centrifuged at 14,000 rpm for 30 s. The pelleted nuclei were resuspended in 40 μl of buffer B (20 mM HEPES, pH 7.9, 25% (v/v) glycerol, 0.42 M NaCl, 1.5 mM MgCl2, 0.2 mM EDTA, 0.5 mM DTT, 1 mM PMSF, 5 μg/ml aprotinin, 5 μg/ml pepstatin A, and 5 μg/ml leupeptin). After 30 min on ice, lysates were centrifuged at 14,000 rpm for 10 min. Supernatants containing the nuclear proteins were diluted with 20 μl of modified buffer C (20 mM HEPES, pH 7.9, 20% (v/v) glycerol, 0.05 M KCl, 0.2 mM EDTA, 0.5 mM DTT, and 0.5 mM PMSF) and stored at −70° C. until use. Nuclear extracts were used for the electrophoretic mobility shift assay using the NF-kβ DNA binding protein detection system kit (GIBCO/BRL), according to the manufacturer's protocol.
Preparation of nuclear extracts and electrophoretic mobility shift assay Nuclear extracts from stimulated or unstimulated astrocytes (1×10^7 cells) were prepared as described (Dignam et al., 1983) with slight modification. Cells were harvested, washed twice with ice-cold phosphate-buffered saline and lysed in 400 μl of buffer A (10 mM HEPES, pH 7.9, 10 mM KCl, 2 mM MgCl2, 0.5 mM DTT, 1 mM PMSF, 5 μg/ml aprotinin, 5 μg/ml pepstatin A, and 5 μg/ml leupeptin) containing 0.1% Nonidet P40 for 15 min on ice, vortexed vigorously for 15 s, and centrifuged at 14,000 rpm for 30 s. […]

[2] = system: iNOS activity in rat primary astrocytes; assay: iNOS activity (arginine to citrulline) in homogenates of treated rat primary astrocytes; type: cell-based; conditions: 10 μM
Procedure: NOS activity was measured directly by production of L-[2,3,4,5-^3H]citrulline from L-[2,3,4,5-^3H] arginine (Feinstein et al., 1994a). […] Assays were carried out for 30 to 40 min and the production of L-[2,3,4,5-^3H] citrulline was linear. The reactions were stopped by addition of 800 μl of ice-cold 20 mM HEPES (pH 5.5) followed by addition of 2 ml of Dowex-50W equilibrated in the same buffer. The samples were then centrifuged and the concentration of L-[^3H]citrulline was determined in the supernatant by liquid scintillation counting.
Dose Dependence of Forskolin Inhibition of the LPS Stimulation of iNOS Astrocytes were incubated with different concentrations of forskolin 15 min before the addition of 1 μg/ml LPS, and after 24 h the iNOS activity was measured as nitrite concentrations in the supernatant and conversion of arginine to citrulline in the cellular homogenates (FIG. 1). The level of nitrite and iNOS activity were inhibited to a similar degree at all the concentrations of forskolin tested. […] . […] This may be due to the fact that PKA was already completely activated in extracts of cells incubated with 10 μM forskolin. The PKA activity increased with the increase in forskolin concentration. The reciprocal relationship of production of NO and iNOS activity with PKA activity supports the conclusion that PKA plays a pivotal role in the regulation of iNOS expression in astrocytes.

[3] = system: control human skin fibroblasts; assay: β-oxidation of lignoceric acid in control human skin fibroblasts; type: cell-based
[4] = system: cultured skin fibroblasts of X-ALD; assay: VLCFA ratios (C26:0/C22:0, C24:0/C22:0) in X-ALD skin fibroblasts; type: cell-based, human; conditions: about 15 days of treatment

Structure (SMILES)	LPS-induced activation of NF-kβ [1]	LPS induced iNOS activity and PKA activity [2]	Lignoceric acid β-oxidation [3] [pmol/h/mg protein]	ratios of C26:0/C22:0 and C24:0/C22:0 / level of VLCFA [4]
COc1cccc(-c2cc(=O)c3ccccc3o2)c1N [PD 98059]	inhibits the LPS-induced activation of NF-kB and the induction of iNOS in astrocytes			
C=C[C@@]1(C)CC(=O)[C@@H]2[C@@]3(C)CCCC(C)(C)[C@@H]3[C@H](O)[C@H](OC(C)=O)[C@@]2(C)O1 [dideoxyforskolin, 1,9-dideoxyforskolin]		neither inhibited the LPS induced iNOS activity nor stimulated the PKA activity	571.4 ± 39.6	had no effect on the ratios of C26:0/C22:0 and C24:0/C22:0

— patent US8507219B2, “Method of treating inflammation with statins” (MUSC Foundation for Research Development, priority 1997, dated 2013)
